Test results from patent US10286038B2, “Lysosome membrane protein 2 (LIMP-2) based peptides and related uses” (Northwestern University, priority 2016, dated 2019).

Experiments:
[1] = biological target: T1, recombinant GC (Cerezyme) (Homo sapiens, UniProt P04062, R534H); assay: recombinant GC activity assay; assay type: biochemical; conditions: tenfold molar excess of peptide, acid pH, relative to buffer control
T1 construct: purchased Genzyme Therapeutics, Boston, USA
T1 sequence (P04062 40-536 R534H): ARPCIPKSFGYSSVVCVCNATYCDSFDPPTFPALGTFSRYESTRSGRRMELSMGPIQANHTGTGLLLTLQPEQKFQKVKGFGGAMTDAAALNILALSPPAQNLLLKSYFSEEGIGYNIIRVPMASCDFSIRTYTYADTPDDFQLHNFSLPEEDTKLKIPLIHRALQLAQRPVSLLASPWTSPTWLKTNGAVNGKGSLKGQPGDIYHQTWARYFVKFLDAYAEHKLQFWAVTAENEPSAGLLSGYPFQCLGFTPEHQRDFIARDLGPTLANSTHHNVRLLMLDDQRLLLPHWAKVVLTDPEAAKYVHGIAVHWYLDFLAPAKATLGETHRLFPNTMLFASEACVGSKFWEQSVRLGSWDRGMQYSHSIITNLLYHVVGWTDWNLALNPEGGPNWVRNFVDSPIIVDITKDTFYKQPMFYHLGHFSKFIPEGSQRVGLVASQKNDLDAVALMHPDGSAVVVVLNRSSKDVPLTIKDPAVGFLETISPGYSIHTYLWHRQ
Procedure: (§1) Expression plasmids of LIMP-2 and human GC constructs were generated as described previously (1). For Western blotting nitrocellulose or PVDF membranes were used. EndoH/PNGaseF digests were performed according to manufacturer's instructions (New England Biolabs, Ipswich, USA). For co-immunoprecipitation experiments magnetic agarose G beads (Thermo Fisher Scientific, Waltham, USA) were utilized. Immunofluorescence studies were performed in cells as previously described (1, 3). Cellular co-localization of two proteins was determined by the Pearson's Index (35). Enzyme activity assays of cell lysates or recombinant protein were measured at acid pH using absorbent and fluorescent artificial substrates. For peptide studies, peptides were N-terminally tagged with biotin. If not stated otherwise, recombinant enzyme was incubated with a tenfold higher molarity of peptides. Conditions for pulldown experiments were kept at neutral pH. Protein modelling, molecular analyses, graphics and animations were performed with the UCSF Chimera package.
To determine the enzymatic activity of the recombinant enzymes, lyophilized enzymes were reconstituted in the NaPi buffer described above. The lyophilized samples of wild-type GC (Cerezyme®) and the custom-made recombinant N307S mutant enzyme contain 0.01% polysorbate 80 (Tween 80) (see prescription information for Cerezyme® at the website for Cerezyme®). As indicated in our experiments, the concentration of the detergent is sufficient to support active GC enzyme and to perform the in vitro GC activity assays without adding further detergents to the reaction mix. For enzyme activity assays of recombinant proteins, 0.1-0.2 nmol of GC (Cerezyme®; N370S) and LAMAN were used in the absence or presence of 10× the molar amount of LIMP-2-derived peptides (Table 1) or LIMP-2 ectodomain (1-2 nmol) (Table 3).
All activity assays were performed at acid pH.

[2] = biological target: T1, recombinant GC (Cerezyme); assay: peptide pulldown of recombinant GC; assay type: binding; conditions: biotinylated peptide, tenfold molar amount, neutral pH, streptavidin beads
Procedure: as §1
All peptides were purchased from jpt Peptide Technologies (Berlin, GER). […] The concentration of the peptides as well as the recombinant proteins was determined spectroscopically (Nanodrop 2000c; Thermo Fisher Scientific, Waltham, USA). […]

recombinant GC = biological target: T2, recombinant GC (Homo sapiens, UniProt P04062, R534H); assay: stabilization assay of recombinant GC at 37° C.; assay type: biochemical; conditions: recombinant GC incubated with peptide at 37° C.
T2 construct: purchased Genzyme Therapeutics, Boston, USA
T2 sequence (P04062 40-536 R534H): T1 sequence (P04062 40-536 R534H)
Procedure: Proteins were visualized by coomassie staining (CBB). […] See also FIG. 6.
To address the functional impact of the observed interaction between the helix 5 peptide and recombinant GC, we measured GC activity in the presence of a one- to tenfold molar excess of the helix 5 peptide. […] No effect on enzymatic activity after incubation with the helix 5 peptide or the LIMP-2 ectodomain could be found for recombinant α-mannosidase (LAMAN) further emphasizing the specificity of the helix 5 peptide on GC activity (FIG. 6E). […] To analyze if the increase in GC activity is due to stabilization of the enzyme, recombinant GC was incubated with the helix 5 and the control peptide at 37° C. and the activity of GC was measured at regular intervals (FIG. 3F).

[3] = system: endogenous GC in Cos 7 cells; conditions: biotinylated peptide, neutral pH
Procedure: For pulldown of endogenous and overexpressed GC from N2a cell lysates 20 nmol of LIMP-2-derived peptide (Helix 5 and 3×D) was incubated with 50 μl cell lysate at 4° C. overnight. The cells were harvested in EBC-buffer (Table 3). After blocking and equilibration of the streptavidin beads (see above) the cell lysate/peptide mixtures were added to the beads for 30 min. at room temperature. The supernatant was removed. After extensive washing of the beads with NaPhosphate buffer, the bound peptides and proteins were released from the beads by incubation with Laemmli buffer (see above). After centrifugation for 2 min. at 17,000×g the supernatant was removed (BOUND fraction) and subjected to SDS-Page and Western-blotting. An antibody against human GC (α-hGC, for details see Table 4) was used for detection.

| Substance | increase of recombinant GC enzyme activity [1] | co-precipitation of recombinant GC [2] | time to complete loss of GC enzymatic activity (recombinant GC) [h] | co-precipitation of endogenous GC from cellular lysates [3] |
| --- | --- | --- | --- | --- |
| KRVQDVIERFWDFIDQLSINTFGK [random helical control peptide, reference compound] | not able to increase | – | – | – |
| Biotin-Ttds-LREDDEAMDKAYQQKLFVTHTVDE [3×D control peptide, reference compound] | did not increase | only the wild-type helix 5 peptide specifically co-precipitated | ≤ 72 | only the wild-type helix 5 peptide specifically co-precipitated |
| Biotin-Ttds-KFERQLREDDEAMDKAYQQKLFVTHTVDEYGRKKRRQRRR [control 3×D TAT-peptide, reference compound] | comparable effect | – | – | – |
